For test [1], the system named is Helicobacter pylori. Description: TLC bacterial overlay assay: binding of radiolabeled Helicobacter pylori to glycosphingolipids, neoglycolipids and glycolipid derivatives on thin-layer plates. The following applies: for binding activity of neoglycolipids with regard to Helicobacter pylori (in words): oligosaccharides reductively aminated to lipid anchor (4-hexadecylaniline); for binding activity of neoglycolipids with regard to Helicobacter pylori (in words) / binding of glycolipid derivatives with regard to Helicobacter pylori (in words): TLC overlay assay; for binding of Helicobacter pylori to purified glycosphingolipids (in words): strain 032, overlay assay on thin-layer plates.

The test system of test [2] is Helicobacter pylori binding to human gastrointestinal cell lines. The note with it: Simon et al., 1999; cited from earlier work.
Test [3] deals with Helicobacter pylori. The note with it: Mysore et al., 2000; cited from earlier work.

“Also recorded” adds a separate entry of the source.

For `CC(=O)NC1C(O)OC(CO)C(OC2OC(CO)C(O)C(OC3OC(CO)C(OC4OC(CO)C(O)C(O)C4NC(C)=O)C(O)C3NC(C)=O)C2O)C1O` (stereo not shown) [GalNAcβ4GlcNAcβ3Galβ4GlcNAc], the “binding activity of neoglycolipids with regard to Helicobacter pylori (in words)” value (from here on “binding activity of neoglycolipids”) in test [1] is on record as “clear binding activity”. For `CC(=O)NC1C(OC2C(O)C(CO)OC(OC3C(CO)OC(O)C(O)C3O)C2O)OC(CO)C(OC2OC(CO)C(O)C(OC3OC(CO)C(O)C(O)C3O)C2O)C1O` (stereo not shown) [Galα3Galβ4GlcNAcβ3Galβ4Glc], the “binding activity of neoglycolipids” value in test [1] was “clear binding activity”. As for `CC(=O)N[C@H]1[C@H](OC[C@H]2OC(O)[C@H](NC(C)=O)[C@@H](O)[C@@H]2O)O[C@H](CO)[C@@H](O[C@@H]2O[C@H](CO)[C@H](O)[C@H](O)[C@H]2O)[C@@H]1O` (stereo partly shown) [Galβ4GlcNAcβ6GlcNAc], in test [1], the “binding activity of neoglycolipids” value is reported as “clear binding activity”. Turning to `CNC(=O)C1OC(OC2C(O)C(CO)OC(OC3C(CO)OC(OCC4OC(O)C(NC(C)=O)C(O)C4O)C(NC(C)=O)C3O)C2O)C(O)C(O)C1O` (stereo not drawn) [Glc(A-methylamide)β3Galβ4GlcNAcβ6GlcNAc], the “binding activity of neoglycolipids” value in test [1] is listed as “strong binding activity”. Turning to `CC(=O)NC1C(OC2C(O)C(CO)OC(OC3C(CO)OC(O)C(O)C3O)C2O)OC(CO)C(OC2OC(CO)C(O)C(OC3OC(C(=O)O)C(O)C(O)C3O)C2O)C1O` (stereo not shown) [GlcAβ3Galβ4GlcNAcβ3Galβ4Glc], the “binding activity of neoglycolipids” value in test [1] is on record as “clear binding activity”. Still for that read-out and setting: for `CC(=O)NC1C(O)OC(CO)C(OC2OC(CO)C(O)C(OC3OC(CO)C(O)C(O)C3NC(C)=O)C2O)C1O` (stereo not shown) [GlcNAcβ3Galβ4GlcNAc] the value was “weakly binding or inactive”. Consider `CC(=O)NC1C(O)OC(COC2OC(CO)C(OC3OC(CO)C(O)C(OC4OC(CO)C(O)C(O)C4NC(C)=O)C3O)C(O)C2NC(C)=O)C(O)C1O` (stereo not shown) [GlcNAcβ3Galβ4GlcNAcα6GlcNAc], for which the “binding activity of neoglycolipids” value in test [1] was “weakly binding or inactive”; in test [1] (listed as GlcNAcα3Galβ4GlcNAcα6GlcNAc) it was “inactive or very weakly active”. `CC(=O)N[C@H]1[C@H](O[C@H]2[C@@H](O)[C@@H](CO)O[C@@H](O[C@H]3[C@H](O)[C@@H](O)C(O)O[C@@H]3CO)[C@@H]2O)O[C@H](CO)[C@@H](O[C@@H]2O[C@H](CO)[C@H](O)[C@@H](O[C@@H]3O[C@H](CO)[C@@H](O)[C@H](O)[C@H]3NC(C)=O)[C@H]2O)[C@@H]1O` (stereo partly shown) [GlcNAcβ3Galβ4GlcNAcβ3Galβ4Glc]: the “binding activity of neoglycolipids” value in test [1] is on record as “clear binding activity”. Same read-out and setting: under `CC(=O)NC1C(OC2C(O)C(CO)OC(OC3C(CO)OC(OC4C(O)C(O)OC(CO)C4O)C(NC(C)=O)C3O)C2O)OC(CO)C(O)C1O` (stereo not shown) [GlcNAcβ3Galβ4GlcNAcβ3Man] stands “clear binding activity”; under `CC(=O)N[C@H]1[C@H](OC[C@H]2OC(O)[C@H](O)[C@@H](O)[C@H]2O)O[C@H](CO)[C@@H](O[C@@H]2O[C@H](CO)[C@H](O)[C@H](O[C@@H]3O[C@H](CO)[C@@H](O)[C@H](O)[C@H]3NC(C)=O)[C@H]2O)[C@@H]1O` (stereo partly shown) [GlcNAcβ3Galβ4GlcNAcβ6Gal], “some binding activity; also recorded: strong binding activity”; under `CC(=O)N[C@H]1[C@H](OC[C@H]2O[C@@H](O[C@H]3[C@H](O)[C@@H](O)C(O)O[C@@H]3CO)[C@H](O)[C@@H](O)[C@H]2O)O[C@H](CO)[C@@H](O[C@@H]2O[C@H](CO)[C@H](O)[C@H](O[C@@H]3O[C@H](CO)[C@@H](O)[C@H](O)[C@H]3NC(C)=O)[C@H]2O)[C@@H]1O` (stereo partly shown) [GlcNAcβ3Galβ4GlcNAcβ6Galβ4Glc], “weakly binding or inactive; also recorded: binding activity was strongly reduced”. Still for that read-out and setting: for `CC(=O)N[C@H]1[C@H](OC[C@H]2OC(O)[C@H](NC(C)=O)[C@@H](O)[C@@H]2O)O[C@H](CO)[C@@H](O[C@@H]2O[C@H](CO)[C@H](O)[C@H](O[C@@H]3O[C@H](CO)[C@@H](O)[C@H](O)[C@H]3NC(C)=O)[C@H]2O)[C@@H]1O` (stereo partly shown) [GlcNAcβ3Galβ4GlcNAcβ6GlcNAc] the value was “high affinity binding; also recorded: strong binding activity”. Take “GalNAcβ3Galα3Galβ4GlcNAcβ3Galβ4Glcβ1Cer [No. 25, reference compound]”: the “binding of Helicobacter pylori to purified glycosphingolipids (in words)” value (shortened to “binding of Helicobacter pylori”) in test [1] is given as “non-binding”. Still for that read-out and setting: under “GalNAcβ3Galβ4GlcNAcβ3Galβ4Glcβ1Cer [No. 11, reference compound]” stands “binding was also found”. “Galα3Galβ4GlcNAcβ3Galβ4Glcβ1Cer [No. 13, reference compound]”: the “binding of Helicobacter pylori” value in test [1] was “binding-active”. For the compound Glc(A-NH2)β3GalNAcβ4Glc(A-NH2)β3GalNAc, the “binding activity of neoglycolipids” value in test [1] was “strong binding activity”.

For “Glc(A-benzylamide)β3 Galβ4GlcNAcβ3Galβ4GlcβCer”, in test [1], the “binding of glycolipid derivatives with regard to Helicobacter pylori (in words)” value (“binding of glycolipid derivatives” below) was “binding active” and the “binding strength towards H. pylori when comparing dilution series of glycolipids on TLC (in words)” value (“binding strength towards H. pylori” below) is listed as “binding effectively”. As for “Glc(A-ethylamide)β3 Galβ4GlcNAcβ3Galβ4GlcβCer”, in test [1], the “binding of glycolipid derivatives” value is given as “binding active”; the “binding strength towards H. pylori” value was “about equally strong binders and best among the four amide derivatives”.

Take “Glc(A-methylamide)β3Galβ4GlcNAcβ3Galβ4GlcβCer”: in test [1], the “binding of glycolipid derivatives” value was “binding active” and the “binding strength towards H. pylori” value is “very strong binding”. Regarding “Glc(A-octadecylamide)β3Galβ4GlcNAcβ3Galβ4GlcβCer”, in test [1], the “binding of glycolipid derivatives” value was “binding active” and the “binding strength towards H. pylori” value is listed as “binding effectively”. For the compound “GlcAβ3GalNAcβ4GlcAβ3GalNAcβ4GlcAβ3GalNAc”, in test [1], the “binding activity of neoglycolipids” value is “clear binding activity”.

Regarding “GlcAβ3Galβ4GlcNAcβ3Galβ4GlcβCer [reference compound]”, the “binding of glycolipid derivatives” value in test [1] is recorded as “binding active”. Turning to GlcAβ3Galβ4GlcNAcβ6GlcNAc, the “binding activity of neoglycolipids” value in test [1] is on record as “clear binding activity”.

For the compound Glcβ3Galβ4GlcNAcβ3Galβ4GlcβCer, in test [1], the “binding of glycolipid derivatives” value is listed as “binding active” and the “binding strength towards H. pylori” value was “strong binding”. With “NeuAcα3GalNAcβ3Galβ4GlcNAcβ3Galβ4Glcβ1Cer [No. 24, reference compound]”, the “binding of Helicobacter pylori” value in test [1] is “non-binding”. As to maltoheptaose [reference compound], the “binding activity of neoglycolipids” value in test [1] was “weakly binding or inactive”. As for sialyl-lactose, the “inhibition of Helicobacter pylori binding to human gastrointestinal cell lines” value in test [2] was “inhibits”. For the same compound, the “efficacy in rhesus monkey animal model of the infection” value in test [3] is reported as “effective”.

These data come from patent publication US20050220819A1, “Novel binding epitopes for helicobacter pylori and use thereof” (priority 2002, published 2005).
